Measurements reported in patent US20100069341A1, “TETRAHYDRO-PYRANOPYRAZOLE CANNABINOID MODULATORS” (priority 2005, published 2010).
Like-named read-outs stand apart in the source and are kept apart here.

Tests used:
Cannabinoid CB1 Receptor = biological target: T1, Cannabinoid CB1 Receptor (Homo sapiens, UniProt P21554); experiment: Binding assay, cannabinoid CB1 receptor ([3H]-CP-55,940 displacement, SK-N-MC cell membranes); details: for inhibition at 0.2 µM: read-out: Cannabinoid CB1 Receptor Binding, percent inhibition
T1 construct: expressed in transfected cells; semi-purified membrane pellet
Experimental: (§1) Binding Assay for CB1 or CB2 Agonists or Inverse Agonists
(§2) The human CB1 and CB2 receptors were stably expressed in SK-N-MC cells transfected with pcDNA3 CB-1 (human) or pcDNA3 CB-2 (human). The cells were grown in T-180 cell culture flasks under standard cell culture conditions at 37° C. in a 5% CO2 atmosphere. The cells were harvested by trysinization and homogenized in a homogenization buffer (10 mM Tris, 0.2 mM MgCl2, 5 mM KCl, with protease inhibitors aprotinin, leupeptin, pepstatin A and bacitracin) and centrifuged (2000 g). The supernatant was then centrifuged in 2M sucrose (31,300 g) to produce a semi-purified membrane pellet. The pellet was resuspended in homogenization and store at −80° C.
On the day of the assay, the pellet was thawed on ice and diluted in assay buffer (50 mM Tris-HCl, 5 mM MgCl2, 2.5 mM EDTA, 0.5 mg/mL fatty acid free bovine serum albumin, pH 7.5). […] The plate was covered and incubated for 90 minutes at 30° C. The contents were then aspirated onto a Packard Unifilter GF/C filter bottom plate prewet with 0.5% polyethyleneimine. The wells of the polypropylene plate were rinsed and aspirated seven times with a 0.9% saline-0.5% Tween 20 solution. The Unifilter plate was dried, a scintillation cocktail was added to each well and the counts representing binding were quantitated in a TopCount scintillation counter.
(§3) For compounds tested, an IC50 binding value was obtained from percent inhibition studies in which various test concentrations were used. The binding value (in μM) was calculated by linear regression.

Cannabinoid CB2 Receptor = biological target: T2, Cannabinoid CB2 Receptor (Homo sapiens, UniProt P34972); experiment: Binding assay, cannabinoid CB2 receptor ([3H]-CP-55,940 displacement, SK-N-MC cell membranes); details: test concentration of 0.2 μM; human CB2 in SK-N-MC membranes; read-out: Cannabinoid CB2 Receptor Binding, percent inhibition
T2 construct: expressed in transfected cells; semi-purified membrane pellet
Experimental: as §1, §2
On the day of the assay, the pellet was thawed on ice and diluted in assay buffer (50 mM Tris-HCl, 5 mM MgCl2, 2.5 mM EDTA, 0.5 mg/mL fatty acid free bovine serum albumin, pH 7.5). The diluted membrane was added with buffer, test compound or standard and the radioligand [H]^3+-CP-55,940 (0.2 nM) to the wells of a 96-well polypropylene plate. Non-specific binding was measured in wells containing 10 uM WIN 55,212. The plate was covered and incubated for 90 minutes at 30° C. The contents were then aspirated onto a Packard Unifilter GF/C filter bottom plate prewet with 0.5% polyethyleneimine. The wells of the polypropylene plate were rinsed and aspirated seven times with a 0.9% saline-0.5% Tween 20 solution. The Unifilter plate was dried, a scintillation cocktail was added to each well and the counts representing binding were quantitated in a TopCount scintillation counter.
as §3, with “regression. For compounds without an IC50 binding value, the percent inhibition (in %) was obtained at a test concentration of 0.2 μM.” for “regression.”

[1] = test concentration of 0.2 μM, human CB1 in SK-N-MC membranes

T1 sequence (P21554 whole entry): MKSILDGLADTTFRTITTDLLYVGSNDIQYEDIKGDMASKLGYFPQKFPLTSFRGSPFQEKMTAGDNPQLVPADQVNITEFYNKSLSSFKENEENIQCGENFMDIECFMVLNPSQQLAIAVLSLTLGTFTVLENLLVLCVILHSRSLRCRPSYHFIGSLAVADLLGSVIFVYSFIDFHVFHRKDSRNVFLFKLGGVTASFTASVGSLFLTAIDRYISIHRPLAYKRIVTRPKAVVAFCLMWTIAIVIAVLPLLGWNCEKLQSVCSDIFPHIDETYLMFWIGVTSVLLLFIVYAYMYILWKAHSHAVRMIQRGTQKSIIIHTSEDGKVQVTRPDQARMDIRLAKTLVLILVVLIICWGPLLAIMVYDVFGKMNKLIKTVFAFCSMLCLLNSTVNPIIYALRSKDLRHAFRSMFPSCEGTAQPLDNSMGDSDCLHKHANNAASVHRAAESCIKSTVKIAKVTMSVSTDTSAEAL
T2 sequence (P34972 whole entry): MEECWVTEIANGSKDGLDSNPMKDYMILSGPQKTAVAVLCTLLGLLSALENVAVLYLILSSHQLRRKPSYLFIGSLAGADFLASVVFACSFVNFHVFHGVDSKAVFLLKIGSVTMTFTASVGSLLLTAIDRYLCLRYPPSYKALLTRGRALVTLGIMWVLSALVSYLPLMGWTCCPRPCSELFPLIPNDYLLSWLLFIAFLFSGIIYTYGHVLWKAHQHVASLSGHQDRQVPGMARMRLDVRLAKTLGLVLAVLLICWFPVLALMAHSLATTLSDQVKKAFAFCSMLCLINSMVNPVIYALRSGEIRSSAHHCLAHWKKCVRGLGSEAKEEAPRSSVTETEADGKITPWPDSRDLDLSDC

| Structure (SMILES) | IC50 (Cannabinoid CB1 Receptor) | inhibition at 0.2 µM (Cannabinoid CB1 Receptor) | inhibition at 0.2 µM (Cannabinoid CB2 Receptor) | inhibition at 0.2 µM (Cannabinoid CB1 Receptor; [1]) |
| --- | --- | --- | --- | --- |
| C[C@@H](NC(=O)c1nn(-c2ccc(Cl)cc2Cl)c2c1COC/C2=C\c1ccsc1)C1CCCCC1 [Cpd 39, (7Z)-1-(2,4-dichloro-phenyl)-7-thiophen-3-ylmethylene-1,4,6,7-tetrahydro-pyrano[4,3-c]pyrazole-3-carboxylic acid [(R)-1-cyclohexyl-ethyl]-amide] | 20 nM | 84% | 13% |  |
| O=C(NN1CCN(CCO)CC1)c1nn(-c2ccc(Cl)cc2Cl)c2c1COC/C2=C\c1ccc(F)cc1 [Cpd 31, (7Z)-1-(2,4-dichloro-phenyl)-7-(4-fluoro-benzylidene)-1,4,6,7-tetrahydro-pyrano[4,3-c]pyrazole-3-carboxylic acid [4-(2-hydroxy-ethyl)-piperazin-1-yl]-amide] |  |  | 15% | 10% |
| C[C@@H](NC(=O)c1nn(-c2ccc(Cl)cc2Cl)c2c1COCC2Cc1ccc(F)cc1)c1ccccc1 (stereo partly drawn) [Cpd 24, 1-(2,4-dichloro-phenyl)-7-(4-fluoro-benzyl)-1,4,6,7-tetrahydro-pyrano[4,3-c]pyrazole-3-carboxylic acid [(R)-1-phenyl-ethyl]-amide] |  |  | 13% | 66% |
| C[C@H](NC(=O)c1nn(-c2ccc(Cl)cc2Cl)c2c1COC/C2=C\c1ccc(Cl)o1)C1CCCCC1 [Cpd 63, (7Z)-7-(5-chloro-furan-2-ylmethylene)-1-(2,4-dichloro-phenyl)-1,4,6,7-tetrahydro-pyrano[4,3-c]pyrazole-3-carboxylic acid [(S)-1-cyclohexyl-ethyl]-amide] |  | 25% | 10% |  |
| O=C(c1nn(-c2ccc(Cl)cc2)c2c1COC/C2=C\c1ccc(F)cc1)N1CCC[C@H]1CO [Cpd 19, (7Z)-[1-(4-chloro-phenyl)-7-(4-fluoro-benzylidene)-1,4,6,7-tetrahydro-pyrano[4,3-c]pyrazol-3-yl]-[(2S)-2-hydroxymethyl-pyrrolidin-1-yl]-methanone] |  |  | 13% | 51% |
| C[C@H](NC(=O)c1nn(-c2ccc(Cl)cc2Cl)c2c1COC/C2=C\c1ccc(Cl)s1)C1CCCCC1 [Cpd 50, (7Z)-7-(5-chloro-thiophen-2-ylmethylene)-1-(2,4-dichloro-phenyl)-1,4,6,7-tetrahydro-pyrano[4,3-c]pyrazole-3-carboxylic acid [(S)-1-cyclohexyl-ethyl]-amide] |  |  | 2% | 34% |
| O=C(NN1CCCCC1)c1nn(-c2ccc(Cl)cc2Cl)c2c1COC/C2=C\c1ccc(F)cc1 [Cpd 7, (7Z)-1-(2,4-dichloro-phenyl)-7-(4-fluoro-benzylidene)-1,4,6,7-tetrahydro-pyrano[4,3-c]pyrazole-3-carboxylic acid piperidin-1-ylamide] | 40 nM |  | 8% | 79% |
| O=C(N[C@H]1c2ccccc2C[C@H]1O)c1nn(-c2ccc(Cl)cc2Cl)c2c1COC/C2=C\c1ccc(F)cc1 [Cpd 4, (7Z)-1-(2,4-dichloro-phenyl)-7-(4-fluoro-benzylidene)-1,4,6,7-tetrahydro-pyrano[4,3-c]pyrazole-3-carboxylic acid [(1S,2R)-2-hydroxy-indan-1-yl]-amide] |  |  | 19% | 64% |
| O=C(N[C@H](CO)c1ccccc1)c1nn(-c2ccc(Cl)cc2Cl)c2c1COC/C2=C\c1ccc(Cl)s1 [Cpd 58, (7Z)-7-(5-chloro-thiophen-2-ylmethylene)-1-(2,4-dichloro-phenyl)-1,4,6,7-tetrahydro-pyrano[4,3-c]pyrazole-3-carboxylic acid [(S)-2-hydroxy-1-phenyl-ethyl]-amide] |  |  | 0% | 59% |
| C[C@@H](NC(=O)c1nn(-c2ccc(Cl)cc2Cl)c2c1COC/C2=C\c1ccc(Cl)s1)c1ccccc1 [Cpd 49, (7Z)-7-(5-chloro-thiophen-2-ylmethylene)-1-(2,4-dichloro-phenyl)-1,4,6,7-tetrahydro-pyrano[4,3-c]pyrazole-3-carboxylic acid [(R)-1-phenyl-ethyl]-amide] | 20 nM |  | 10% | 84% |
| O=C(NN1CCCCCC1)c1nn(-c2ccc(Cl)cc2Cl)c2c1COC/C2=C\c1cccs1 [Cpd 36, (7Z)-1-(2,4-dichloro-phenyl)-7-thiophen-2-ylmethylene-1,4,6,7-tetrahydro-pyrano[4,3-c]pyrazole-3-carboxylic acid azepan-1-ylamide] | 20 nM |  | 16% | 84% |
| O=C(NN1CC2CCCC2C1)c1nn(-c2ccc(Cl)cc2Cl)c2c1COC/C2=C\c1cccs1 (centres unmarked) [Cpd 38, (7Z)-1-(2,4-dichloro-phenyl)-7-thiophen-2-ylmethylene-1,4,6,7-tetrahydro-pyrano[4,3-c]pyrazole-3-carboxylic acid (hexahydro-cyclopenta[c]pyrrol-2-yl)-amide] | 30 nM |  | 16% | 79% |
| O=C(NN1CCCC1)c1nn(-c2ccc(Cl)cc2Cl)c2c1COC/C2=C\c1cccs1 [Cpd 34, (7Z)-1-(2,4-dichloro-phenyl)-7-thiophen-2-ylmethylene-1,4,6,7-tetrahydro-pyrano[4,3-c]pyrazole-3-carboxylic acid pyrrolidin-1-ylamide] |  |  | 7% | 54% |
| O=C(NN1CCCCCC1)c1nn(-c2ccc(Cl)cc2Cl)c2c1COC/C2=C\c1ccc(Cl)o1 [Cpd 65, (7Z)-7-(5-chloro-furan-2-ylmethylene)-1-(2,4-dichloro-phenyl)-1,4,6,7-tetrahydro-pyrano[4,3-c]pyrazole-3-carboxylic acid azepan-1-ylamide] | 70 nM |  | 9% | 71% |
| C[C@@H](NC(=O)c1nn(-c2ccc(Cl)cc2Cl)c2c1COC/C2=C\c1ccc(Cl)o1)c1ccccc1 [Cpd 69, (7Z)-7-(5-chloro-furan-2-ylmethylene)-1-(2,4-dichloro-phenyl)-1,4,6,7-tetrahydro-pyrano[4,3-c]pyrazole-3-carboxylic acid [(R)-1-phenyl-ethyl]-amide] | 50 nM |  | 15% | 73% |
| O=C(NN1CCCCCC1)c1nn(-c2ccc(Cl)cc2Cl)c2c1COC/C2=C\c1ccc(Cl)s1 [Cpd 53, (7Z)-7-(5-chloro-thiophen-2-ylmethylene)-1-(2,4-dichloro-phenyl)-1,4,6,7-tetrahydro-pyrano[4,3-c]pyrazole-3-carboxylic acid azepan-1-ylamide] | 10 nM |  | 10% | 83% |
| C[C@H](NC(=O)c1nn(-c2ccc(Cl)cc2Cl)c2c1COC/C2=C\c1ccsc1)c1ccccc1 [Cpd 42, (7Z)-1-(2,4-dichloro-phenyl)-7-thiophen-3-ylmethylene-1,4,6,7-tetrahydro-pyrano[4,3-c]pyrazole-3-carboxylic acid [(S)-1-phenyl-ethyl]-amide] |  | 57% | 16% |  |
| O=C(NN1CCCC1)c1nn(-c2ccc(Cl)cc2Cl)c2c1COC/C2=C\c1ccsc1 [Cpd 47, (7Z)-1-(2,4-dichloro-phenyl)-7-thiophen-3-ylmethylene-1,4,6,7-tetrahydro-pyrano[4,3-c]pyrazole-3-carboxylic acid pyrrolidin-1-ylamide] | 30 nM |  | 9% | 70% |
| O=C(NN1CC2CCCC2C1)c1nn(-c2ccc(Cl)cc2Cl)c2c1COC/C2=C\c1ccc(F)cc1 (centres unmarked) [Cpd 17, (7Z)-1-(2,4-dichloro-phenyl)-7-(4-fluoro-benzylidene)-1,4,6,7-tetrahydro-pyrano[4,3-c]pyrazole-3-carboxylic acid (hexahydro-cyclopenta[c]pyrrol-2-yl)-amide] | 20 nM |  | 29% | 99% |
| C[C@H](NC(=O)c1nn(-c2ccc(Cl)cc2Cl)c2c1COC/C2=C\c1ccc(Cl)o1)c1ccccc1 [Cpd 70, (7Z)-7-(5-chloro-furan-2-ylmethylene)-1-(2,4-dichloro-phenyl)-1,4,6,7-tetrahydro-pyrano[4,3-c]pyrazole-3-carboxylic acid [(S)-1-phenyl-ethyl]-amide] |  |  | 15% | 41% |
